Like-named read-outs stand apart in the source and are kept apart here.
Assays:
BCRP = biological target: T1, BCRP (Homo sapiens, UniProt Q9UNQ0); experiment: Substrate of BCRP (Caco-2 cells, selective inhibitor)
T1 sequence (Q9UNQ0 1-655): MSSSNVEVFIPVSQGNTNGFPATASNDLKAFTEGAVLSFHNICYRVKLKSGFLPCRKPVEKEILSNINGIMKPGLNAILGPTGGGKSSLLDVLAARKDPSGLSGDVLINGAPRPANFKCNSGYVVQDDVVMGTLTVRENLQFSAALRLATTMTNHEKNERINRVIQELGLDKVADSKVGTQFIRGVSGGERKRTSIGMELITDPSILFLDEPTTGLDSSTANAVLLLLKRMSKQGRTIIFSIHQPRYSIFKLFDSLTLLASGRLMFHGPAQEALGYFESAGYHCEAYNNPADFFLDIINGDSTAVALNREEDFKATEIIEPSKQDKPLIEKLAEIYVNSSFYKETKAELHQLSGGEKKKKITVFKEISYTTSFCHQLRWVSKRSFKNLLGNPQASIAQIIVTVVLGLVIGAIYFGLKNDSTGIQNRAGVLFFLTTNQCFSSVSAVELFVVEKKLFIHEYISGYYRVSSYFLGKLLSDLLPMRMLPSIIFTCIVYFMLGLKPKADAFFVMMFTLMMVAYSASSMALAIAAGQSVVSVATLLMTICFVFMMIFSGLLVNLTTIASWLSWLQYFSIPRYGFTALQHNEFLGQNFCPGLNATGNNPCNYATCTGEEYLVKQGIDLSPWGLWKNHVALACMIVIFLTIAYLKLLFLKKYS

OATP1B1 = OATP1B1 (Homo sapiens, UniProt Q9Y6L6); experiment: Inhibitor of OATP1B1, probe substrate uptake; conditions: for Inhibition of OATP1B1 / Inhibitor of OATP1B1: two concentrations per test article; for potency estimated from few doses: read-out: Estimated IC50, OATP1B1
[1] = biological target: T2, CYPs in human liver microsomes (HLM) (Homo sapiens, UniProt P05177); experiment: CYP reaction phenotyping in HLM with chemical inhibitors (% remaining); conditions: +NADPH +furafylline (CYP1A2), pre-incubated
T2 sequence (P05177 1-516): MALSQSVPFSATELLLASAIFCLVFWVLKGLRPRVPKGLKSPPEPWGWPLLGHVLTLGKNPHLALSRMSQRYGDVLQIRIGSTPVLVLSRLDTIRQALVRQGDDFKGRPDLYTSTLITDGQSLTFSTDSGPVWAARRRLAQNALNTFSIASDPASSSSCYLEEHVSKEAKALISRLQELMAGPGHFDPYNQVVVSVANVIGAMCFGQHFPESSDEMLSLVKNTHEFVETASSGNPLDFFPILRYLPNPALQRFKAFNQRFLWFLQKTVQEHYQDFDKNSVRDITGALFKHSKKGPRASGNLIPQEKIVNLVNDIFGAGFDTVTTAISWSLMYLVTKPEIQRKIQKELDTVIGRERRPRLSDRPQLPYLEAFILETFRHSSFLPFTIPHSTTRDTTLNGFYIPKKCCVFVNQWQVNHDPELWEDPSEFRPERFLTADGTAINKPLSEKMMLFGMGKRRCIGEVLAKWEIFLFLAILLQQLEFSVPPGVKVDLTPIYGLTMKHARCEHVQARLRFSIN

[2] = biological target: CYPs in human liver microsomes (HLM) (Homo sapiens, UniProt P33261); experiment: as above; conditions: +NADPH +N3B (CYP2C19)
[3] = biological target: CYPs in human liver microsomes (HLM) (Homo sapiens, UniProt P11712); experiment: as above; conditions: +NADPH +sulfaphenazole (CYP2C9)
[4] = biological target: CYPs in human liver microsomes (HLM) (Homo sapiens, UniProt P10635); experiment: as above; conditions: +NADPH +quinidine (CYP2D6)
hrCYP2C19 = hrCYP2C19 (Homo sapiens, UniProt P33261); experiment: CYP reaction phenotyping with hrCYP2C19 (% remaining); assay type: in vitro ADME; conditions: for % Remaining of TA: hrCYP2C19 20 pmol CYP/mL, 5 μM TA, PB and TUDCA co-incubated
hrCYP2B6 = biological target: T3, hrCYP2B6 (Homo sapiens, UniProt P20813); experiment: CYP reaction phenotyping with hrCYP2B6 (% remaining); assay type: in vitro ADME; conditions: for % Remaining of TA: hrCYP2B6 20 pmol CYP/mL, 5 μM TA, PB and TUDCA co-incubated
T3 sequence (P20813 1-491): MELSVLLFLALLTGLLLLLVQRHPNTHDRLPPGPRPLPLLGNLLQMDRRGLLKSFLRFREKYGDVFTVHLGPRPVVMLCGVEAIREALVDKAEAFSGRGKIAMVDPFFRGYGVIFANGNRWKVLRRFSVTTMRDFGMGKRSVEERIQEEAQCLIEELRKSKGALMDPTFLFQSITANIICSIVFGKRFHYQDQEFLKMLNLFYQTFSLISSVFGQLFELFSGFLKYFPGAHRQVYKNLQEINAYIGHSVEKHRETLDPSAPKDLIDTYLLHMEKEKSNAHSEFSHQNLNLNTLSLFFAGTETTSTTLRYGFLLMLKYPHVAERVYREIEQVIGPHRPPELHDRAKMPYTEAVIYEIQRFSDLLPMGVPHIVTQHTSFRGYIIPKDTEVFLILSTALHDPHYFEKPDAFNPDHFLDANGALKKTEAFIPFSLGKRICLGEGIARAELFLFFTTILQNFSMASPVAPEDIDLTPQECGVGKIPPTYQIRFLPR

[5] = test article 1 and 10 μM, Caco-2 cells
[6] = estimated from two concentrations

Sequence of CYPs in human liver microsomes (HLM) (Homo sapiens, UniProt P10635) (P10635 whole entry): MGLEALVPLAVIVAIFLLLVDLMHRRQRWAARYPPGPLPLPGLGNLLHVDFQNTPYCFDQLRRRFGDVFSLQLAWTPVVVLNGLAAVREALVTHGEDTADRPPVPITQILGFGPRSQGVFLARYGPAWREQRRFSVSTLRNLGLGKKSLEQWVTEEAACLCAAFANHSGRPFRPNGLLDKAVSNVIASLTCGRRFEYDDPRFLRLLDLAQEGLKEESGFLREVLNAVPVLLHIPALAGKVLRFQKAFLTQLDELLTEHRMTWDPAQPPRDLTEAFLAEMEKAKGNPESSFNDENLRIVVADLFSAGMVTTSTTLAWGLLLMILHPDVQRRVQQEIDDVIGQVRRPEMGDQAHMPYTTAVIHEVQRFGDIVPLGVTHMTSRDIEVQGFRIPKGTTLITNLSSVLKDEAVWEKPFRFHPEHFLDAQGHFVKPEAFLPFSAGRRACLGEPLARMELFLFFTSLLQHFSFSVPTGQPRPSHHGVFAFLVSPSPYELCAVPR
Sequence of CYPs in human liver microsomes (HLM) (Homo sapiens, UniProt P33261) (P33261 whole entry): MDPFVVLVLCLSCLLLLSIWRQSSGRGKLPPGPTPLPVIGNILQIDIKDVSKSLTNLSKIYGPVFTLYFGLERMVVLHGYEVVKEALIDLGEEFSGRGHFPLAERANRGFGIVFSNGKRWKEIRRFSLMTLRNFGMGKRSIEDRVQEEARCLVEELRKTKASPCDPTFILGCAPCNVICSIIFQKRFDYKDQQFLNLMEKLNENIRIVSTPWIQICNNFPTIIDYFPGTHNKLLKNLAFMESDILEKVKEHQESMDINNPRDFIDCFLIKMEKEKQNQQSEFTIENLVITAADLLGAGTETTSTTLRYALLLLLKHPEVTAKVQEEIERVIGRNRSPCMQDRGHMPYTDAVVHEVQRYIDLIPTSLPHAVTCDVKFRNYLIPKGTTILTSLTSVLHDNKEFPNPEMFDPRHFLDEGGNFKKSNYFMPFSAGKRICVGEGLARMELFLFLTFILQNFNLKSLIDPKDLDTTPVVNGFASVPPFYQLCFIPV
Sequence of hrCYP2C19 (P33261 whole entry): as above
Sequence of OATP1B1 (Q9Y6L6 whole entry): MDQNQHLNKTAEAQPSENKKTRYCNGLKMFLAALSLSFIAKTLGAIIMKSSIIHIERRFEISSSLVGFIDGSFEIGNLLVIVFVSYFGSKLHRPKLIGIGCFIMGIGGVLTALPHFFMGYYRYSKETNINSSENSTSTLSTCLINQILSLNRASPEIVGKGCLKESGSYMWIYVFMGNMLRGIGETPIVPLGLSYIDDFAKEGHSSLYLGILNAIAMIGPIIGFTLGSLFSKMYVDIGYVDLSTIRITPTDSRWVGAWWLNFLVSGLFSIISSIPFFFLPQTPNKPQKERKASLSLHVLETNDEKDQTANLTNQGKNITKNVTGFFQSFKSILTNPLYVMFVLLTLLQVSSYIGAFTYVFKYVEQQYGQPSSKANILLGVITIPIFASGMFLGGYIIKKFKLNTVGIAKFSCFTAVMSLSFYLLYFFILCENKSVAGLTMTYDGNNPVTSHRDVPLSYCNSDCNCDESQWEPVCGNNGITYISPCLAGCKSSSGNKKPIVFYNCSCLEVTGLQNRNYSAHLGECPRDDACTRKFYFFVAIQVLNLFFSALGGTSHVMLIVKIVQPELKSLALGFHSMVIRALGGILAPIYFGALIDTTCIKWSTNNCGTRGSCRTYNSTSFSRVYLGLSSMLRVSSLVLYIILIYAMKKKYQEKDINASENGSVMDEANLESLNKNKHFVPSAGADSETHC
Sequence of CYPs in human liver microsomes (HLM) (Homo sapiens, UniProt P11712) (P11712 whole entry): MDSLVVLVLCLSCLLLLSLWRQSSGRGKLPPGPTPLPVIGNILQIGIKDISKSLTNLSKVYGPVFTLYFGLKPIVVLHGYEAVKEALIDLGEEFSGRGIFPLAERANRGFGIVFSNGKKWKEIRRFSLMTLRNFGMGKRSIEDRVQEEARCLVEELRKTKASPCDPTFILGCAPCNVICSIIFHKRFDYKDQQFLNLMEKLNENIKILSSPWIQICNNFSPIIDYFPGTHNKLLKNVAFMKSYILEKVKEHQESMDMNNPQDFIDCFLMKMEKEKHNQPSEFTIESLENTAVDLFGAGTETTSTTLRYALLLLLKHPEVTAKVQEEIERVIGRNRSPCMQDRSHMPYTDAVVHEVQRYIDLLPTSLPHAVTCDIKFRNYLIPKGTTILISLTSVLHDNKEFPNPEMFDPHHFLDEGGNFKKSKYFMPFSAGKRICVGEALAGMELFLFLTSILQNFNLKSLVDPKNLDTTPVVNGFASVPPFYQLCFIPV

| Molecule | Substrate of BCRP (BCRP; Caco-2, 1 and 10 μM) | Substrate of BCRP (BCRP; [5]) | Inhibition of OATP1B1 (OATP1B1) | Inhibitor of OATP1B1 (OATP1B1) | % remaining of TA in HLM ([1]; 5 min) [%] | % remaining of TA in HLM ([1]; 10 min) [%] | % remaining of TA in HLM ([1]; 20 min) [%] | % remaining of TA in HLM ([1]; 30 min) [%] | % remaining of TA in HLM ([1]; 60 min) [%] | % remaining of TA in HLM ([2]; 5 min) [%] | % remaining of TA in HLM ([2]; 20 min) [%] | % remaining of TA in HLM ([2]; 30 min) [%] | % remaining of TA in HLM ([2]; 60 min) [%] | % remaining of TA in HLM ([3]; 20 min) [%] | % remaining of TA in HLM ([3]; 30 min) [%] | % remaining of TA in HLM ([3]; 60 min) [%] | % remaining of TA in HLM ([4]; 20 min) [%] | % remaining of TA in HLM ([4]; 60 min) [%] | potency estimated from few doses (OATP1B1; [6]) [µM] | Uptake activity remaining, OATP1B1 (OATP1B1; 50 μM) | also measured |
| --- | --- | --- | --- | --- | --- | --- | --- | --- | --- | --- | --- | --- | --- | --- | --- | --- | --- | --- | --- | --- | --- |
| C[C@H](CCC(=O)NCC(=O)O)[C@H]1CC[C@H]2[C@@H]3[C@@H](O)C[C@@H]4C[C@H](O)CC[C@]4(C)[C@H]3CC[C@]12C [Glycoursodeoxycholic acid, glycoursodeoxycholic acid] | as a substrate | Yes | inhibited | Yes |  |  |  |  |  |  |  |  |  |  |  |  |  |  |  |  | Efflux remaining with Ko143 (BCRP; Caco-2): < 18.8%; Uptake activity remaining, OATP1B1 (OATP1B1; 10 μM): 50.4%; Uptake activity remaining, OATP1B1 (OATP1B1; 100 μM): 1.68% |
| O=C(O)CCCc1ccccc1 [PB, sodium phenylbutyrate] | not a substrate | No | did not inhibit | No | 116 | 131 | 125 | 127 | 128 | 101 | 101 | 101 | 101 | 98.5 | 99.6 | 97.6 | 97.5 | 98.8 |  |  | % remaining of TA in HLM ([3]; 5 min): 103%; % remaining after 60 minutes (hrCYP2C19; human, 1 h, 5 µM, pH 7.4): greater than 90%; % remaining after 60 minutes (hrCYP2B6; human, 1 h, 5 µM, pH 7.4): greater than 90% |
| O=C(O)Cc1ccccc1 [Phenylacetic acid, phenylacetic acid] | not a substrate | No | inhibited | Yes |  |  |  |  |  |  |  |  |  |  |  |  |  |  | > 7500 |  |  |
| tauroursodeoxycholic acid [TUDCA] | as a substrate | Yes | inhibited | Yes | 123 | 123 | 121 | 120 | 128 | 106 | 93.1 | 92.1 | 94.5 | 92.8 | 95.0 | 95.3 | 99.7 | 87.2 | < 50 | roughly 18% | % remaining of TA in HLM ([2]; 10 min): 93.0%; % remaining of TA in HLM ([3]; 10 min): 96.9%; % remaining of TA in HLM ([4]; 10 min): 110%; % Remaining of TA (hrCYP2C19; 0 min): 100%; % Remaining of TA (hrCYP2C19; 5 min): 96.1%; % Remaining of TA (hrCYP2C19; 10 min): 98.7%; % Remaining of TA (hrCYP2C19; 20 min): 94.8%; % Remaining of TA (hrCYP2C19; 30 min): 95.1%; potency estimated from few doses (OATP1B1; estimated from two doses): < 50 µM; % Remaining of TA (hrCYP2B6; 0 min): 100%; % Remaining of TA (hrCYP2B6; 5 min): 97.6%; % Remaining of TA (hrCYP2B6; 10 min): 97.0%; % Remaining of TA (hrCYP2B6; 20 min): 99.3%; % Remaining of TA (hrCYP2B6; 30 min): 99.7%; % Remaining of TA (hrCYP2B6; 60 min): 101% |
| ursodeoxycholic acid | not a substrate | No | inhibited | Yes |  |  |  |  |  |  |  |  |  |  |  |  |  |  | < 50 | 545.1% | Uptake activity remaining, OATP1B1 (OATP1B1; 500 μM): no uptake activity remaining; potency estimated from few doses (OATP1B1; estimated from two doses): < 50 µM |

Reference: patent US20240139211A1, “METHODS AND COMPOSITIONS FOR TREATING AMYOTROPHIC LATERAL SCLEROSIS” (Amylyx Pharmaceuticals, Inc., priority 2022, published 2024)
